Laboratory results as given in patent US8673905B2, “Imidazo pyrazines” (Hoffmann-La Roche Inc., priority 2011, dated 2014).
Structures can show the parent of a compound that is named as a salt.

What was measured:
MV4-11 cells = assay: Cell Glo Viability Assay (Luminescence), MV4-11; format: cell-based; conditions: Homo sapiens, 120 h; MV4-11 cells (mutated FLT3), 5 days, CellTiter-Glo; read-out: Cellular EC50 (μM) MV4-11
Procedure: (§1) Molm13 cells, a human acute monocytic leukemia cell line, and MV4-11 cells, a human leukemia cell line known to express mutated FLT3 cells (both from ATCC) were seeded separately at 2000 cells per well in 90 μL of RPMI1640 medium supplemented with 10% FBS in 96-well black-walled plates (BD Falcon). Test compounds were diluted at ten times of assay concentrations, 10 μL was added into duplicate wells. Plates were incubated at 37° C. with 5% CO2 for 5 days. Cell viability was assayed by CellTiter-Glo® Luminescent Cell Viability Assay (Promega) following manufacturer's protocol.
(§2) The results of this assay, given as EC50 values, indicate the concentration of test compound that inhibits tumor cell proliferation by 50%.

human recombinant FLT3 = human recombinant FLT3 (Homo sapiens (Human), UniProt P36888); assay: FLT3 Kinase Assay (Caliper mobility shift); format: biochemical; conditions: for IC50: 100 μM ATP, 28° C., 90 minutes, read-out: Enzyme IC50 (μM) FLT3; for inhibition at 10 µM: 10 μM test compound, reported where IC50 was not determined, read-out: % inhibition of FLT3 at 10 μM test compound concentration
Sequence of human recombinant FLT3 (P36888 27-993): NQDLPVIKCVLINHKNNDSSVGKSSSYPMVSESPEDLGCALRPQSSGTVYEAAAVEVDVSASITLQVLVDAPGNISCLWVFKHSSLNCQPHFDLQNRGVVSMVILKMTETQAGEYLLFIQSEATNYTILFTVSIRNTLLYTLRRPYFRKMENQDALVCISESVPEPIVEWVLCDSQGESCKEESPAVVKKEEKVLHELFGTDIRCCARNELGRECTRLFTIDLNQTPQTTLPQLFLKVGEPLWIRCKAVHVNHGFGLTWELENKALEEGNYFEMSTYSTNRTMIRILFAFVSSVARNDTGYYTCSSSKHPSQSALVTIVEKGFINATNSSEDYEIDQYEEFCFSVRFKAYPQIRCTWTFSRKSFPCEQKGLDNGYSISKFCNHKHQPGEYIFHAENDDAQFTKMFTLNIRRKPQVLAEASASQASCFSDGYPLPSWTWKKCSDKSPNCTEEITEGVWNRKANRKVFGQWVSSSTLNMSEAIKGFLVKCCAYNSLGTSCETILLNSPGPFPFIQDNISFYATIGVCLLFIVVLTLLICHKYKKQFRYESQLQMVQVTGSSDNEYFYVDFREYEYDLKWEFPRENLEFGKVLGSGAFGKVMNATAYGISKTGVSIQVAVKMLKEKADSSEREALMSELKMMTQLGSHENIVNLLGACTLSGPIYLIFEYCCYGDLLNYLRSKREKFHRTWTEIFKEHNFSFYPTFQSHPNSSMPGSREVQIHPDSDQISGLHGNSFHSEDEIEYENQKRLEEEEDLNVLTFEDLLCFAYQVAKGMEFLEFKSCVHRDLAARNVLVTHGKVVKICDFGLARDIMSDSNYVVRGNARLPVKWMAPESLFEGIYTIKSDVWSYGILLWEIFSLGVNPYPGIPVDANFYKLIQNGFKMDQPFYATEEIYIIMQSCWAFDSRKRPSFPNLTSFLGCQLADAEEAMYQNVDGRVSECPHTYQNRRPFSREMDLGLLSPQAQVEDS
Procedure: After incubation, the reaction product was analyzed by electrophoretic mobility shift run on Caliper by manufacturer's protocol.

Molm13 cells = assay: Cell Glo Viability Assay (Luminescence), Molm13; format: cell-based; conditions: Homo sapiens, MOLM-13, 120 h, 5 days, CellTiter-Glo, read-out: Cellular EC50 (μM) Molm13
Procedure: as §1, §2

Compound	IC50 (human recombinant FLT3) [µM]	inhibition at 10 µM (human recombinant FLT3) [%]	EC50 (MV4-11 cells) [µM]	EC50 (Molm13 cells) [µM]
CNc1nccn2c(-c3ccnc(Nc4ccccc4)n3)cnc12 [Example 20, Methyl-[3-(2-phenylamino-pyrimidin-4-yl)-imidazo[1,2-a]pyrazin-8-yl]-amine]	< 0.005		0.041	0.052
CNc1nccc(-c2cnc3c(NC4CCNCC4)nccn23)n1 [Example 26, [3-(2-Methylamino-pyrimidin-4-yl)-imidazo[1,2-a]pyrazin-8-yl]-piperidin-4-yl-amine]			1.12	2.56
CC(C)Nc1nccc(-c2cnc3c(NCCO)nccn23)n1 [Example 30, 2-[3-(2-Isopropylamino-pyrimidin-4-yl)-imidazo[1,2-a]pyrazin-8-ylamino]-ethanol]			0.745	2.19
CN1CCN(c2nccn3c(-c4ccnc(NCc5ccc(Cl)cc5)n4)cnc23)CC1 [Example 59, (4-Chloro-benzyl)-{4-[8-(4-methyl-piperazin-1-yl)-imidazo[1,2-a]pyrazin-3-yl]-pyrimidin-2-yl}-amine; hydrochloride]		29.2		
c1ccc(CNc2nccc(-c3cnc4c(NCCN5CCOCC5)nccn34)n2)cc1 [Example 72, [3-(2-Benzylamino-pyrimidin-4-yl)-imidazo[1,2-a]pyrazin-8-yl]-(2-morpholin-4-yl-ethyl)-amine; hydrochloride]			0.124	0.171
N[C@H]1CC[C@H](Nc2nccn3c(-c4cccc(NCc5ccccc5)n4)cnc23)CC1 [Example 73, N-[3-(6-Benzylamino-pyridin-2-yl)-imidazo[1,2-a]pyrazin-8-yl]-cyclohexane-1,4-diamine; hydrochloride]			0.04	0.077
CN1CCN(c2nccn3c(-c4ccnc(NC(CN)c5ccsc5)n4)cnc23)CC1 (stereo not drawn) [Example 75, N1-{4-[8-(4-Methyl-piperazin-1-yl)-imidazo[1,2-a]pyrazin-3-yl]-pyrimidin-2-yl}-1-thiophen-3-yl-ethane-1,2-diamine; hydrochloride]			0.878	1.69
CN1CCN(c2nccn3c(-c4ccnc(NC(CN)c5cccc(Cl)c5)n4)cnc23)CC1 (stereo not drawn) [Example 79, 1-(3-Chloro-phenyl)-N1-{4-[8-(4-methyl-piperazin-1-yl)-imidazo[1,2-a]pyrazin-3-yl]-pyrimidin-2-yl}-ethane-1,2-diamine; hydrochloride]			1.01	1.97
NCCC(Nc1cccc(-c2cnc3c(N[C@H]4CC[C@H](N)CC4)nccn23)n1)c1ccccc1 (stereo partly drawn) [Example 81, N-{3-[6-(3-Amino-1-phenyl-propylamino)-pyridin-2-yl]-imidazo[1,2-a]pyrazin-8-yl}-cyclohexane-1,4-diamine; hydrochloride]			0.288	0.255
N[C@H]1CC[C@H](Nc2nccn3c(-c4cccc(NCc5cccc(Cl)c5)n4)cnc23)CC1 [Example 82, N-{3-[6-(3-Chloro-benzylamino)-pyridin-2-yl]-imidazo[1,2-a]pyrazin-8-yl}-cyclohexane-1,4-diamine; hydrochloride]			0.049	0.119
N[C@H]1CC[C@H](Nc2nccn3c(-c4cccc(NCc5ccccc5Cl)n4)cnc23)CC1 [Example 85, N-{3-[6-(2-Chloro-benzylamino)-pyridin-2-yl]-imidazo[1,2-a]pyrazin-8-yl}-cyclohexane-1,4-diamine; hydrochloride]	< 0.005		< 0.014	< 0.014
N[C@H]1CC[C@H](Nc2nccn3c(-c4cccc(NCc5ccc(Cl)cc5)n4)cnc23)CC1 [Example 86, N-{3-[6-(4-Chloro-benzylamino)-pyridin-2-yl]-imidazo[1,2-a]pyrazin-8-yl}-cyclohexane-1,4-diamine; hydrochloride]			0.385	0.353
N[C@H]1CC[C@H](Nc2nccn3c(-c4cccc(NCc5cccs5)n4)cnc23)CC1 [Example 87, N-(3-{6-[(Thiophen-2-ylmethyl)-amino]-pyridin-2-yl}-imidazo[1,2-a]pyrazin-8-yl)-cyclohexane-1,4-diamine; hydrochloride]			0.07	0.074
Clc1ccccc1CNc1nccc(-c2cnc3c(NCCN4CCOCC4)nccn23)n1 [Example 88, {3-[2-(2-Chloro-benzylamino)-pyrimidin-4-yl]-imidazo[1,2-a]pyrazin-8-yl}-(2-morpholin-4-yl-ethyl)-amine; hydrochloride]			0.055	0.037
Clc1cccc(CNc2nccc(-c3cnc4c(NCCN5CCOCC5)nccn34)n2)c1 [Example 89, {3-[2-(3-Chloro-benzylamino)-pyrimidin-4-yl]-imidazo[1,2-a]pyrazin-8-yl}-(2-morpholin-4-yl-ethyl)-amine; hydrochloride]			0.06	0.075
NCCC(Nc1cccc(-c2cnc3c(NCCN4CCOCC4)nccn23)n1)c1cccc(Cl)c1 (stereo not drawn) [Example 90, 1-(3-Chloro-phenyl)-N-1-{6-[8-(2-morpholin-4-yl-ethylamino)-imidazo[1,2-a]pyrazin-3-yl]-pyridin-2-yl}-propane-1,3-diamine hydrochloride]	< 0.005		< 0.014	0.034

The next lines start with results.

IC50 (human recombinant FLT3) [µM]	inhibition at 10 µM (human recombinant FLT3) [%]	Compound	EC50 (MV4-11 cells) [µM]	EC50 (Molm13 cells) [µM]
	33.5	CN1CCN(c2nccn3c(-c4ccnc(NCc5cccs5)n4)cnc23)CC1 [Example 64, {4-[8-(4-Methyl-piperazin-1-yl)-imidazo[1,2-a]pyrazin-3-yl]-pyrimidin-2-yl}-thiophen-2-ylmethyl-amine; hydrochloride]		
< 0.005		N[C@H]1CC[C@H](Nc2nccn3c(-c4ccnc(NCc5cccc(Cl)c5)n4)cnc23)CC1 [Example 67, N-{3-[2-(3-Chloro-benzylamino)-pyrimidin-4-yl]-imidazo[1,2-a]pyrazin-8-yl}-cyclohexane-1,4-diamine; hydrochloride]	0.017	0.049
< 0.005		N[C@H]1CC[C@H](Nc2nccn3c(-c4ccnc(NCc5ccccc5)n4)cnc23)CC1 [Example 68, N-[3-(2-Benzylamino-pyrimidin-4-yl)-imidazo[1,2-a]pyrazin-8-yl]-cyclohexane-1,4-diamine; hydrochloride]	0.052	0.061
	13.2	CN1CCN(c2nccn3c(-c4cccc(NCc5ccc(Cl)cc5)n4)cnc23)CC1 [Example 71, (4-Chloro-benzyl)-{6-[8-(4-methyl-piperazin-1-yl)-imidazo[1,2-a]pyrazin-3-yl]-pyridin-2-yl}-amine; hydrochloride]		
< 0.005		NCCC(Nc1nccc(-c2cnc3c(N[C@H]4CC[C@H](N)CC4)nccn23)n1)c1ccccc1 (stereo partly drawn) [Example 76, N-{3-[2-(3-Amino-1-phenyl-propylamino)-pyrimidin-4-yl]-imidazo[1,2-a]pyrazin-8-yl}-cyclohexane-1,4-diamine; hydrochloride]	0.232	0.301
< 0.005		NCC(Nc1nccc(-c2cnc3c(N[C@H]4CC[C@H](N)CC4)nccn23)n1)c1ccccc1 (stereo partly drawn) [Example 77, N-{3-[2-(2-Amino-1-phenyl-ethylamino)-pyrimidin-4-yl]-imidazo[1,2-a]pyrazin-8-yl}-cyclohexane-1,4-diamine; hydrochloride]	0.015	0.08
< 0.005		NCC(Nc1cccc(-c2cnc3c(N[C@H]4CC[C@H](N)CC4)nccn23)n1)c1ccccc1 (stereo partly drawn) [Example 80, N-{3-[6-(2-Amino-1-phenyl-ethylamino)-pyridin-2-yl]-imidazo[1,2-a]pyrazin-8-yl}-cyclohexane-1,4-diamine; hydrochloride]	< 0.014	0.041
< 0.005		N[C@H]1CC[C@H](Nc2nccn3c(-c4ccnc(NCc5ccccc5Cl)n4)cnc23)CC1 [Example 83, N-{3-[2-(2-Chloro-benzylamino)-pyrimidin-4-yl]-imidazo[1,2-a]pyrazin-8-yl}-cyclohexane-1,4-diamine; hydrochloride]	0.016	0.021
< 0.005		N[C@H]1CC[C@H](Nc2nccn3c(-c4cccc(NCc5ccsc5)n4)cnc23)CC1 [Example 84, N-(3-{6-[(Thiophen-3-ylmethyl)-amino]-pyridin-2-yl}-imidazo[1,2-a]pyrazin-8-yl)-cyclohexane-1,4-diamine; hydrochloride]	0.068	0.056
< 0.005		NCC(Nc1cccc(-c2cnc3c(NCCN4CCOCC4)nccn23)n1)c1cccc(Cl)c1 (stereo not drawn) [Example 91, 1-(3-Chloro-phenyl)-N-1-{6-[8-(2-morpholin-4-yl-ethylamino)-imidazo[1,2-a]pyrazin-3-yl]-pyridin-2-yl}-ethane-1,2-diamine hydrochloride]	< 0.014	< 0.014
